Source: ChEMBL document CHEMBL5614379, “The synthesis of 1,2,3-triazoles as binders of D-dopachrome tautomerase (D-DT) for the development of dual-targeting inhibitors” (Eur J Med Chem, 2024)
pIC50: −log10 of the molar value. Calls of active or inactive are those of the source. The calls are words filed in the database; no cut-off is given here.

What was measured:
[1] = biological target: T1, Macrophage migration inhibitory factor (Homo sapiens) (UniProt P14174); test: Non-competitive inhibition of MIF (unknown origin) at 12.5 uM using pyruvic acid as substrate incubated for 10 mins by absorbance based analysis
T1 sequence (whole entry): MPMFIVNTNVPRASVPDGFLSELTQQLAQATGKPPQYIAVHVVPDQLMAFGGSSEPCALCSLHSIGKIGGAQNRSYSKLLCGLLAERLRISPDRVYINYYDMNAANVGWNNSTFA

[2] = biological target: D-dopachrome decarboxylase (Homo sapiens, UniProt P30046); test: Inhibition of DDT (unknown origin) expressed in Escherichia coli by absorbance based analysis

Row | Structure (SMILES) | inhibition [1] | pIC50 [2]
1 | COc1cccc2c1CC(NC(=O)c1cn(-c3ccc(Cl)c(C(F)(F)F)c3)nn1)CC2 (configuration not stated) | Active | 
2 | O=C(O)c1cccc(-c2cc(C(=O)O)ncc2C(=O)O)c1 |  | 4.57
